According to patent US20050037402A1, “Device and process for direct quantitative in vitro determination of a substance that is contained in a sample” (priority 2003, published 2005):

Experiments:
[1] = Photophysical characterization of dye-antibody complexes (spectral shifts, fluorescence quantum yields); type: physicochemical; conditions: for Absorption Maximum (nm) / Fluorescence Maximum (nm) / Fluorescence Quantum Yield (%): 1 μmol/l dye, 2.4 μmol/l antibody in PBS; for Absorption Maximum (nm) / Fluorescence Maximum (nm): 2 hours at room temperature; for Fluorescence Quantum Yield (%): relative to indocyanine green
Procedure: Dye-antibody complexes based on antibodies with binding to the indotricarbocyanine dye trisodium-3,3-dimethyl-2-{4-methyl-7-[3,3-dimethyl-5-sulfonato-1-(2-sulfonatoethyl)-3H-indolium-2-yl]hepta-2,4,6-trien-1-ylidene}-1-(2-sulfonatoethyl)-2,3-dihydro-1H-indole-5-sulfonate, inner salt, were examined (see Example 1). Solutions of the concentration of 1 μmol/l of the above-mentioned dye and 2.4 μmol/l of the respective antibody in PBS were produced and incubated for 2 hours at room temperature. The absorption maxima were determined with a spectral photometer (Perkin-Elmer, Lambda2). The fluorescence maxima and fluorescence quantum yields were determined with a SPEX fluorolog (wavelength-dependent sensitivity calibrated by lamp and detector) relative to indocyanine green (Q=0.13 in DMSO, J Chem Eng Data 1977, 22, 379, Bioconjugate Chem 2001, 12, 44). From the absorption and fluorescence maxima, the spectral shifts were calculated relative to the maxima of a solution of the above-mentioned dye without antibodies in PBS (1 μmol/l) (absorption max. 754 nm, fluorescence max. 783 nm, fluorescence quantum yield 10%).

[2] = in DMSO; cited from earlier work
[3] = bound by 12-mer peptides; cited from earlier work
[4] = Inhibition-ELISA for binding of the unconjugated dye by selected HuCAL GOLD Fab fragments
Procedure: The purified and concentrated phagemids of the HuCAL GOLD antibody library were used in a standard selection process. As antigens, BSA- or transferrin-coupled ZK203468 were used alternately. The antigens were taken up in PBS and applied at concentrations of 50 μg/ml on Maxisorp™ microtiter plates F96 (Nunc). The maxisorp plates were incubated overnight at 4° C. (“coating”). After the maxisorp plates were blocked with 5% milk powder in PBS, about 2E+13 HuCAL GOLD phages were added to the antigen-loaded, blocked-off spots and incubated there overnight or for two hours at room temperature. After several washing steps, which became more stringent with progressive selection rounds, bonded phages were eluted with 20 mmol of DTT or 100 μmol of unconjugated ZK203468. Altogether, three successive selection rounds were carried out, whereby the phage amplification was carried out between the selection rounds, as described above.
Several thousand clones were isolated after the selection and sub-cloning and tested by means of ELISA in 384-well format for specific detection of the antigens ZK203468-BSA and—transferrin used in panning. Clones identified in this connection were studied in an inhibition-ELISA for efficient binding of the unconjugated dye.

[5] = dye without antibodies in PBS (1 μmol/l)
[6] = relative to the dye without antibodies in PBS (1 μmol/l)

## CC(C=CC=C1N(CCS(=O)(=O)[O-])c2ccc(S(=O)(=O)[O-])cc2C1(C)C)=CC=CC1=[N+](CCS(=O)(=O)[O-])c2ccc(S(=O)(=O)[O-])cc2C1(C)C.[Na+].[Na+].[Na+] [ZK203468, Trisodium-3,3-dimethyl-2-{4-methyl-7-[3,3-dimethyl-5-sulfonato-1-(2-sulfonatoethyl)-3H-indolium-2-yl]hepta-2,4,6-trien-1-ylidene}-1-(2-sulfonatoethyl)-2,3-dihydro-1H-indole-5-sulfonate, Inner Salt]
[1]
  Absorption Maximum (nm): 754 nm
  Fluorescence Maximum (nm): 783 nm
  Fluorescence Quantum Yield (%): 10.0%
[1]; [5]
  absorption max.: 754 nm
  fluorescence max.: 783 nm
  fluorescence quantum yield: 10%

## CC1(C)C(/C=C/C=C/C=C/C=C2\N(CCCCS(=O)(=O)O)c3ccc4ccccc4c3C2(C)C)=[N+](CCCCS(=O)(=O)[O-])c2ccc3ccccc3c21 [indocyanine green]
[2]
  fluorescence quantum yield Q: 0.13

## Texas Red
[3]
  red shift of the absorption: 2.8 nm
  red shift of the fluorescence: 1.4 nm

B1: MOR02965: HuCAL GOLD Fab fragment binding dye ZK203468; protein SEQ-ID NO: 5 (VH-CH) and 6 (VL-CL) (antibody)
heavy: QVQLQQSGPGLVKPSQTLSLTCAISGDSVSSNSAAWSWIRQSPGRGLEWLGRIYYRSKWYNDYAVSVKSRITINPDTSKNQFSLQLNSVTPEDTAVYYCARTSFYQKLFFIAFDHWGQGTLVTVSSASTKGPSVFPLAPSSKSTSGGTAALGCLVKDYFPEPVTVSWNSGALTSGVHTFPAVLQSSGLYSLSSVVTVPSSSLGTQTYICNVNHKPSNTKVDKKVEPKSEFEQKLISEEDLNGAPWSHPQFEK
light: DIALTQPASVSGSPGQSITISCTGTSSDGGAYHYVSWYQQHPGKAPKLMIYGVIYRPSGVSNRFSGSKSGNTASLTISGLQAEDEADYYCAAWDFRKRLNVFGGGTKLTVLGQPKAAPSVTLFPPSSEELQANKATLVCLISDFYPGAVTVAWKADSSPVKAGVETTTPSKQSNNKYAASSYLSLTPEQWKSHRSYSCQVTHEGSTVEKTVAPTEA
modifications: Fab fragment of variable heavy chain; Fab fragment of variable light chain
[1]
  Absorption Maximum (nm): 799 nm
  Fluorescence Maximum (nm): 815 nm
  Fluorescence Quantum Yield (%): 13.0%
[1]; [6]
  Absorption Shift (nm): 45 nm
  Fluorescence Shift (nm): 32 nm
[4]
  binding to the non-conjugated dye ZK203468: bind efficiently
